ChEMBL document CHEMBL1201862, “PubChem BioAssay data set” (2004)
Active and inactive are the calls of the source.

Key:
[1] = HepG2 cell cytotoxicity, dose response, cytotoxicity control for non-replicating M. tuberculosis project (AID 489018); format: functional; conditions: Mycobacterium tuberculosis
cells = format: functional
[2] = Vero E6 cell cytotoxicity, dose response, cytotoxicity control for non-replicating M. tuberculosis project, secondary assay (AID 492998); format: functional, VeroE6; conditions: Vero C1008
[3] = THP-1 cell cytotoxicity, dose response, cytotoxicity control for non-replicating M. tuberculosis project (AID 489025); format: functional
[4] = Trypanosoma cruzi growth suppression in host cells – NIH3T3 host cells, beta-gal luminescence, confirmation (AID 2044); format: functional, cell-based;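 note: intracellular parasites grown in NIH/3T3 mouse fibroblasts as host cells; luminescent beta-galactosidase reporter signal from transgenic T. cruzi replicating inside host cells; inhibitors lower the luminescence signal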
[5] = NIH3T3 cell viability loss – ATP luminescence, mouse fibroblasts, counter-screen, dose response (AID 2010); format: functional, cell-based;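 note: cells exposed to compound for about 90 hours before reading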
Vero = assay: cells; format: functional; conditions: Chlorocebus sabaeus
[6] = target: Alkaline phosphatase, placental type (Homo sapiens, UniProt P05187); assay: human placental alkaline phosphatase inhibition – biochemical, luminescence, confirmation (AID 1512); format: functional
[7] = target: Alkaline phosphatase, tissue-nonspecific isozyme (Homo sapiens, UniProt P05186); assay: potency against alkaline phosphatase TNAP – biochemical, luminescent, dose response, SAR follow-up (AID 1056)
Chain of Alkaline phosphatase, tissue-nonspecific isozyme (P05186 whole entry): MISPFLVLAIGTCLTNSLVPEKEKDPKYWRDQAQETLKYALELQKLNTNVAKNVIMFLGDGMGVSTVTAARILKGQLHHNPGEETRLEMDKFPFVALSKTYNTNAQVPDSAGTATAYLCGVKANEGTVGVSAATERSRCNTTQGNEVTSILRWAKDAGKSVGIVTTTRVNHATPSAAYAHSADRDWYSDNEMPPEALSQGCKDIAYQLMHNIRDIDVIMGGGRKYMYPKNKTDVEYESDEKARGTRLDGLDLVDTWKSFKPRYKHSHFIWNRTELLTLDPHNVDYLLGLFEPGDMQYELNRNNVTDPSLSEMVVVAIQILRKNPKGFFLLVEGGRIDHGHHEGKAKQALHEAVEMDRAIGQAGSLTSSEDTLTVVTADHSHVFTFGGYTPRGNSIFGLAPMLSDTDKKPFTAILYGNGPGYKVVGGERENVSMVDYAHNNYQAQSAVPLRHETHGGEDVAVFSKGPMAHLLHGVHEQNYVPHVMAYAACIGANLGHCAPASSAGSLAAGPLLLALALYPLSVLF

[8] = target: Eukaryotic translation initiation factor 4E (Mus musculus, UniProt P63073); assay: blockers of eIF4G binding by eIF4E – biochemical, TR-FRET, dose response (AID 855); format: functional;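 note: potency for disrupting eIF4E binding to eIF4GI seen as loss of FRET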
Chain of Eukaryotic translation initiation factor 4E (P63073 whole entry): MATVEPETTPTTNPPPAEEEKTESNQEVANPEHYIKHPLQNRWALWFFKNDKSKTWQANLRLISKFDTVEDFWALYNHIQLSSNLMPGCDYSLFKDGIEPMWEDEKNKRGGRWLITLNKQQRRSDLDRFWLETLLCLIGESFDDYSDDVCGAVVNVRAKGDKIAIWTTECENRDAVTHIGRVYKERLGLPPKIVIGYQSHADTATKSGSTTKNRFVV

[9] = fluconazole-exposed Candida albicans growth modulators – fluorescence, retest, confirmation (AID 2467); format: functional, cell-based
[10] = NIH-3T3 fibroblast cytotoxicity, dose response, cytotoxicity control, cell-based, fluorescence, Alamar Blue, secondary assay (AID 2327); format: functional;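 note: NIH-3T3 mouse fibroblasts cultured with fluconazole at 8 µg/mL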
[11] = loss of viability in HepG2 cells – cell-based, CellTiter-Glo, cherry-picked, cytotoxicity control for Shn3 inhibitor project, dose response (AID 624134); format: functional
[12] = target: E3 ubiquitin-protein ligase Mdm2/Protein Mdm4 (Homo sapiens, UniProt O15151+Q00987); assay: disruption of Mdm2/MdmX protein binding – luminescence detection, dose response (AID 504593); format: functional
[13] = reduction of Shn3 3'UTR-driven luciferase in osteoblasts – cell-based, Clone20 osteoblasts, firefly luciferase, cherry-picked, dose response (AID 624132); format: functional;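 note: firefly luciferase luminescence from reporter carrying the Shn3 3'UTR in osteoblasts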
INS1 = assay: INS-1E survival protection against cytokine death – cell-based, luminescence, retest, dose response (AID 449756); format: functional; conditions: Rattus norvegicus;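 note: cell death triggered by IL-1 beta plus TNF-alpha plus IFN-gamma mixture; protective hits raise ATP signal compared with cytokine alone wells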
[14] = non-specific 3'UTR reporter inhibition in Clone20-Shn3RL – cell-based, Renilla luciferase, cherry-picked, counter-screen for Shn3 inhibitor project, dose response (AID 624133); format: functional
[15] = target: Delta-type opioid receptor (Homo sapiens, UniProt P41143); assay: SAR Analysis of Antagonists of the DOR Receptor using an Image-Based Assay - Set 3. [Related pubchem assays (depositor defined):AID1777, AID1785]; format: functional;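 note: U2OS cells expressing DOR1 and beta-arrestin GFP stimulated with 100 nM SNC80; imaging of GFP-tagged beta-arrestin moving into spots after receptor activation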
Chain of Delta-type opioid receptor (P41143 whole entry): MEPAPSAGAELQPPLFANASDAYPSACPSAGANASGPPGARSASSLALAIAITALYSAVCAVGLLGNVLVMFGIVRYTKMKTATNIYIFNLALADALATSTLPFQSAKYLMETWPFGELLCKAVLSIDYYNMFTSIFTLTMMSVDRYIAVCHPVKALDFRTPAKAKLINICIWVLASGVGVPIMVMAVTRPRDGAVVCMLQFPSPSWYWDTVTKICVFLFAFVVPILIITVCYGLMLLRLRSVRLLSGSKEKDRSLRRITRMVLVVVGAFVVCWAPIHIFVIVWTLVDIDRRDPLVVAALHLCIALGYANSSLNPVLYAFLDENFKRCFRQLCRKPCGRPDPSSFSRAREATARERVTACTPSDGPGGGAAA

[16] = target: T1, Kappa-type opioid receptor (Homo sapiens, UniProt P41145); assay: SAR analysis of Antagonists of the Kappa Opioid Receptor (KOR) using an Image-Based Assay - Set 4. [Related pubchem assays (depositor defined):AID1777, AID1785]; format: functional
T1 sequence (P41145 whole entry): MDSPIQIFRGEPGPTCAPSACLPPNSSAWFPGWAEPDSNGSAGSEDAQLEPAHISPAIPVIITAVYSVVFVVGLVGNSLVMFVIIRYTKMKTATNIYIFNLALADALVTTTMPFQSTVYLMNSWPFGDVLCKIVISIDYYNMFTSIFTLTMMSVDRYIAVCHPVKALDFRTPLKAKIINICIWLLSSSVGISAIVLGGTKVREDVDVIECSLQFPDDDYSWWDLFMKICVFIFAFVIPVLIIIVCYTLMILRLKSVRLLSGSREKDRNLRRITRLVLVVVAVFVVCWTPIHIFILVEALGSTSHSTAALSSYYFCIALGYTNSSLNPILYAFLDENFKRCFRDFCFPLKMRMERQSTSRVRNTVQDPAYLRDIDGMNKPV

[17] = target: T1, Kappa-type opioid receptor; assay: SAR analysis of small molecule antagonists of the kappa opioid receptor via a luminescent beta-arrestin assay - Set 3. [Related pubchem assays (depositor defined):AID1777, AID1778, AID1785, AID1786, AID1966, AID2133, AID2136, AID2285, AID2495]; format: functional
[18] = target: T1, Kappa-type opioid receptor; assay: SAR analysis of small molecule antagonists of the kappa opioid receptor via a luminescent beta-arrestin assay - Set 6. [Related pubchem assays (depositor defined):AID1777, AID1778, AID1785, AID1786, AID1966, AID2133, AID2136, AID2285]; format: functional
Mu-type opioid receptor = Mu-type opioid receptor (Homo sapiens, UniProt P35372); assay: SAR Analysis of Antagonists of the MOR Receptor using an Image-Based Assay - Set 3. [Related pubchem assays (depositor defined):AID1777, AID1785, AID1786, AID1966, AID2133, AID2136, AID2284, AID2285, AID2420]; format: functional
Chain of Mu-type opioid receptor (P35372 whole entry): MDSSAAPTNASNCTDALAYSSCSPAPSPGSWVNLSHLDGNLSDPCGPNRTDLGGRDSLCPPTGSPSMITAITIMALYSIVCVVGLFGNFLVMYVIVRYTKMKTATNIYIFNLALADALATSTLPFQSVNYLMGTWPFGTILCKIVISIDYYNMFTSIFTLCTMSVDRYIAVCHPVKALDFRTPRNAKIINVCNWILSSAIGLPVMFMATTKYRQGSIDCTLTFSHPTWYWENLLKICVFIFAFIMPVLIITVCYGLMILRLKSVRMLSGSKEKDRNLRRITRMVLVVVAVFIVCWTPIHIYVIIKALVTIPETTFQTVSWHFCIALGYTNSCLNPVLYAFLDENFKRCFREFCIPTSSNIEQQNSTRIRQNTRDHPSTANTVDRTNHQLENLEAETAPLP

[19] = target: T2, Short transient receptor potential channel 4 (Mus musculus, UniProt Q9QUQ5); assay: potentiation of DAMGO-evoked TRPC4 calcium signal – cell-based, HEK293 TRPC4/mu-opioid, Fluo-4 calcium, EC20 DAMGO, dose response (AID 434941); format: functional
T2 sequence (Q9QUQ5 whole entry): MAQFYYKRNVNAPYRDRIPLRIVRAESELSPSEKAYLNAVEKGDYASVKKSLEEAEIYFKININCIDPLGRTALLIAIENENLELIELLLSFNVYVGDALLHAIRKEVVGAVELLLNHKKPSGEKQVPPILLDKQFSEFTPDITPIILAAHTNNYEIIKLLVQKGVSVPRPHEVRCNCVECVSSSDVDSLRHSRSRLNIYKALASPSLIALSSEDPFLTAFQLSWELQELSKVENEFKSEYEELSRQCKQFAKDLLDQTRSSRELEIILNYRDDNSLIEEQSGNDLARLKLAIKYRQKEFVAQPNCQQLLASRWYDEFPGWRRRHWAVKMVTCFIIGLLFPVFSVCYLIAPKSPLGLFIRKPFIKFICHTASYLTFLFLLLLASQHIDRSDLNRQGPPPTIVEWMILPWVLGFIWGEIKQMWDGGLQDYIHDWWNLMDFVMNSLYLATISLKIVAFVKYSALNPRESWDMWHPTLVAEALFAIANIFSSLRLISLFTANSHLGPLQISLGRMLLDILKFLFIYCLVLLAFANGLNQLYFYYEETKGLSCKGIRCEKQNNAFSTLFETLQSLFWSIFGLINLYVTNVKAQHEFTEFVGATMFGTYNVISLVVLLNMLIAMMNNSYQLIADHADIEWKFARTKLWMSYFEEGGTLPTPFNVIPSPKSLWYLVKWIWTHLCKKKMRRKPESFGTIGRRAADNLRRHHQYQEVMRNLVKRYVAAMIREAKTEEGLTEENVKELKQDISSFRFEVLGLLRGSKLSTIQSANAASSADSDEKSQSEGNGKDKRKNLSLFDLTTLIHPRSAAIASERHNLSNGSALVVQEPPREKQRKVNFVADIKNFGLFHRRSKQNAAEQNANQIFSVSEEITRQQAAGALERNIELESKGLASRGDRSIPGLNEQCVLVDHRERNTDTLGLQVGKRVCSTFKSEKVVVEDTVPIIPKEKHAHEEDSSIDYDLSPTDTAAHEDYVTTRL

[20] = target: G-protein coupled receptor 35 (Homo sapiens, UniProt Q9HC97); assay: SAR analysis of Antagonists of the GPR35 Receptor using an Image-Based Assay - Set 5. [Related pubchem assays (depositor defined):AID2058, AID2079]; format: functional
Chain of G-protein coupled receptor 35 (Q9HC97 whole entry): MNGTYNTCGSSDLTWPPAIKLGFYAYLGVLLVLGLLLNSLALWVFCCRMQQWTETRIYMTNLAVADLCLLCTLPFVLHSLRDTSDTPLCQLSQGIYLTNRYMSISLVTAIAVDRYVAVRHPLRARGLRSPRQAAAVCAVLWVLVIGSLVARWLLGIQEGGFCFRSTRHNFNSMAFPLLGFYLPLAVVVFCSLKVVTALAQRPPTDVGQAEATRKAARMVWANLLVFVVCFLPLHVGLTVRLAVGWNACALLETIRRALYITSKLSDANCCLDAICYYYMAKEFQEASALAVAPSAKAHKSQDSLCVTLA

[21] = A Cell Based Secondary Assay To Explore Cytotoxicity of Compounds that Sensitize Mycobacterium Tuberculosis to Beta-Lactam Antibiotics.; format: functional
[22] = target: T3, G-protein coupled receptor 55 (Homo sapiens, UniProt Q9Y2T6); assay: SAR Analysis of Selective Antagonists of GPR55 using an Image-Based Assay - Set 3. [Related pubchem assays (depositor defined):AID2058, AID2079]; format: functional
T3 sequence (Q9Y2T6 whole entry): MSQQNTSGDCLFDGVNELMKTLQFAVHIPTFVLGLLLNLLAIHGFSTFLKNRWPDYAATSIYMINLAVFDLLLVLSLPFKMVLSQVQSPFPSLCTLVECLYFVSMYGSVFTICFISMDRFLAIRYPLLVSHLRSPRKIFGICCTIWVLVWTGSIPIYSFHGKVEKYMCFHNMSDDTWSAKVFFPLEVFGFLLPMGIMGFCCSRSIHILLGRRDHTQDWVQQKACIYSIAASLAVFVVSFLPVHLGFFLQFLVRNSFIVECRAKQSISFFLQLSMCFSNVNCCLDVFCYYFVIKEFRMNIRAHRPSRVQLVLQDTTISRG

[23] = target: T3, G-protein coupled receptor 55; assay: selective activators of receptor GPR55 – imaging, U2OS cells, beta-arrestin-GFP redistribution, primary screen (AID 1961); format: functional
[24] = target: T4, Mannose-6-phosphate isomerase (Homo sapiens, UniProt P34949); assay: phosphomannose isomerase inhibition – biochemical, fluorescence intensity, confirmation (AID 1535)
T4 sequence (P34949 whole entry): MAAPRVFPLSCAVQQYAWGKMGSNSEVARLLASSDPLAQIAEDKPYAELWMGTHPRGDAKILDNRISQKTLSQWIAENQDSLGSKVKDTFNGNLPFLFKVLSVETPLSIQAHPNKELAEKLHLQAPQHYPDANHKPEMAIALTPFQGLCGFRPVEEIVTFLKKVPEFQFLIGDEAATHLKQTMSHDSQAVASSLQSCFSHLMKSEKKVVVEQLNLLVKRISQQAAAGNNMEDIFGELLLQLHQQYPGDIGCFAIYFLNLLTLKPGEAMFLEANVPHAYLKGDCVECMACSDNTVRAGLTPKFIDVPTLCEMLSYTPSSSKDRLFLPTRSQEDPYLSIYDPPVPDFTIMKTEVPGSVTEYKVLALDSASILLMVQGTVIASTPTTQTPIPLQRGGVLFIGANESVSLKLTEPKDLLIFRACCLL

Phosphomannomutase 2 = Phosphomannomutase 2 (Homo sapiens, UniProt O15305); assay: Counter screen SAR assay for PMM2 inhibitors via a fluorescence intensity assay. [Related pubchem assays (depositor defined):AID1545, AID1574]
Chain of Phosphomannomutase 2 (O15305 whole entry): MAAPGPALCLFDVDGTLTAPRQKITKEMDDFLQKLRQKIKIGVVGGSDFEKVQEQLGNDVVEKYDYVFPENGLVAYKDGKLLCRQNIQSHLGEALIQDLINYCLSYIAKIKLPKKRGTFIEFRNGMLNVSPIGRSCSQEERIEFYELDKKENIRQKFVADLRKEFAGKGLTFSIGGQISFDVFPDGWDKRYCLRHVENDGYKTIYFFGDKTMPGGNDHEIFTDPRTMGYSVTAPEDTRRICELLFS

[25] = target: T5, Tyrosine-protein phosphatase non-receptor type 7 (Homo sapiens, UniProt P35236); assay: Dose Response confirmation of compounds that inhibit HePTP. [Related pubchem assays (depositor defined):AID1059, AID1661, AID2085]; format: functional
T5 sequence (P35236 whole entry): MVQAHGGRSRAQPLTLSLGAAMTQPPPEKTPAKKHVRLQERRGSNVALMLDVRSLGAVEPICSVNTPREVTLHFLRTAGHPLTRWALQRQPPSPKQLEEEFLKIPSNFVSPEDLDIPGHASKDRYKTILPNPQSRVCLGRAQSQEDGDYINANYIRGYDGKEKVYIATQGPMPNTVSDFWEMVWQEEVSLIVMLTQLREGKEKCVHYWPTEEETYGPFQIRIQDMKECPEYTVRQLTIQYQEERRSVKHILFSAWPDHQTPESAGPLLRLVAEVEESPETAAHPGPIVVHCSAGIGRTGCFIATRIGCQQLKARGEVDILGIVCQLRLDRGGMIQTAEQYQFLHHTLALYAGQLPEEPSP

Cytochrome P450 2C19 = Cytochrome P450 2C19 (Homo sapiens, UniProt P33261); assay: Cytochrome panel assay with activity outcomes. Panel member name: p450-cyp2c19 Compounds with AC50 equal or less than 10 uM are considered active; format: functional; conditions: read-out: AC50
Chain of Cytochrome P450 2C19 (P33261 whole entry): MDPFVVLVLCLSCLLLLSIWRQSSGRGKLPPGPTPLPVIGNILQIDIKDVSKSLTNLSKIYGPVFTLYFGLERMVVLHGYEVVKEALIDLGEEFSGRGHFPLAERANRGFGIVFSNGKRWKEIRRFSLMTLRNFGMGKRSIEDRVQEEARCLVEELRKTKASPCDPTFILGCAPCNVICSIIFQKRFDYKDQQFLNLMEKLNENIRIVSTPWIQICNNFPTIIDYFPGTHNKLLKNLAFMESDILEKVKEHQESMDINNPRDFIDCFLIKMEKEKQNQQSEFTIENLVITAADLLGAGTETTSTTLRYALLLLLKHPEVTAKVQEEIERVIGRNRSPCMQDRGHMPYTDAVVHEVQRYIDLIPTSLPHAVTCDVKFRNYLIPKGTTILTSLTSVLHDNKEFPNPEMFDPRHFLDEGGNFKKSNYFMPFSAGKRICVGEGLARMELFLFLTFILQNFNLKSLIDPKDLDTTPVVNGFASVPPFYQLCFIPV

Cytochrome P450 3A4 = Cytochrome P450 3A4 (Homo sapiens, UniProt P08684);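 note: CYP3A4 tested as one member of a cytochrome P450 panel screen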
Chain of Cytochrome P450 3A4 (P08684 whole entry): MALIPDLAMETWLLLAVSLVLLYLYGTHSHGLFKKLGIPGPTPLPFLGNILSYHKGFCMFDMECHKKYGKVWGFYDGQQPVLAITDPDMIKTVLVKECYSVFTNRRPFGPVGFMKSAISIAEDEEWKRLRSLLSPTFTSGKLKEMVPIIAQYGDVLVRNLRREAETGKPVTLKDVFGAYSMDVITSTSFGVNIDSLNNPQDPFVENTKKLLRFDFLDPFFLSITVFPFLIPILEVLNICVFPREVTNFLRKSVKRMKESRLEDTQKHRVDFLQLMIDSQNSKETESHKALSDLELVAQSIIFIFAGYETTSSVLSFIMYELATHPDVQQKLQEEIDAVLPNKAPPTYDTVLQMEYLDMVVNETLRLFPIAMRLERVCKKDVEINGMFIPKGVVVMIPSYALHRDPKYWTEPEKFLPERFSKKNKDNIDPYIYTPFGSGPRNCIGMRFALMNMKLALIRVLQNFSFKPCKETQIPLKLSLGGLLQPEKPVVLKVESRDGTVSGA

[26] = target: T6, Dual specificity protein phosphatase 3 (Homo sapiens, UniProt P51452); assay: Dose Response Confirmation of compounds that inhibit VHR1 in Fluorescent Assay. [Related pubchem assays (depositor defined):AID1661, AID1878]; format: functional
T6 sequence (P51452 whole entry): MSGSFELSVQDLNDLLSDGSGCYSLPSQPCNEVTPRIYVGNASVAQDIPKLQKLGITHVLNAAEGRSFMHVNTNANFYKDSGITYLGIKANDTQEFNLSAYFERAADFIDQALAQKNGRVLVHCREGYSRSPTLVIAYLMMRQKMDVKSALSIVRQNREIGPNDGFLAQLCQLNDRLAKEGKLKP

[27] = target: T6, Dual specificity protein phosphatase 3; assay: SAR VHR1 Fluorescent Assay for In Vitro dose response studies Set 3. [Related pubchem assays (depositor defined):AID1654, AID1661, AID1878]; format: functional
Cytochrome P450 2C9 = Cytochrome P450 2C9 (Homo sapiens, UniProt P11712)
Chain of Cytochrome P450 2C9 (P11712 whole entry): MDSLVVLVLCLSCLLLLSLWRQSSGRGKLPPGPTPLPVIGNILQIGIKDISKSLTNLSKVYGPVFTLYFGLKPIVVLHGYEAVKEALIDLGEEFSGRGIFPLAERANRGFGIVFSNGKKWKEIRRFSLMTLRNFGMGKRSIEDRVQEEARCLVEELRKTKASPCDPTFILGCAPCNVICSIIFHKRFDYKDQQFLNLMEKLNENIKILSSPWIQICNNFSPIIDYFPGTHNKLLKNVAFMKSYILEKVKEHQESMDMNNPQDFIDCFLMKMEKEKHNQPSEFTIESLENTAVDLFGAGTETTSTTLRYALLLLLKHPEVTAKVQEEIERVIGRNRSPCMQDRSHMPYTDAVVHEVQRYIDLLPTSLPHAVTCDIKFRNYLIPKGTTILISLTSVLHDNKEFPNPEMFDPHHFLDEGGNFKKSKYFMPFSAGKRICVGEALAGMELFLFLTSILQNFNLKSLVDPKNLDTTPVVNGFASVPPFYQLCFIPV

Cytochrome P450 1A2 = target: T7, Cytochrome P450 1A2 (Homo sapiens, UniProt P05177);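 note: PubChem cytochrome P450 panel assay, CYP1A2 panel member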
T7 sequence (P05177 whole entry): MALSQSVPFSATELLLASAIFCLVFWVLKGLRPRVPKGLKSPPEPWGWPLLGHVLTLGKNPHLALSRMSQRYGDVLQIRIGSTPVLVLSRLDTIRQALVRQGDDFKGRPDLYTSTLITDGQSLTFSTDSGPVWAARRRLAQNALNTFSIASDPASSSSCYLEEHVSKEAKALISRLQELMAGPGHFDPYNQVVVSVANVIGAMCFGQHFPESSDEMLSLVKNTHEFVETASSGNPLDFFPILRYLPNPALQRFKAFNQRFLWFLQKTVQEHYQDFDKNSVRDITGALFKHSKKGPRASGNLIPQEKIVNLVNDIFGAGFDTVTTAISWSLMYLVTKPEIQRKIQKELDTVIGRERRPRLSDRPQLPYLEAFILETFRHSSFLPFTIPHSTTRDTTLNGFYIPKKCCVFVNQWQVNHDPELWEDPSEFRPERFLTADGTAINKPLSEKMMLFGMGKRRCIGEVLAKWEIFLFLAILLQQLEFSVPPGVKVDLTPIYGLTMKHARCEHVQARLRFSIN

SMILES: O=C(Nc1nc2ccccc2n1CCOc1ccc(Cl)cc1)c1ccco1
- CC50 [1]: > 20 µM (active)
- IC50 (cells): 9.2 µM (active)
- CC50 [2]: 9.25 µM (active)
- CC50 [3]: 34.4 µM (active)
- EC50 [4]: 2.02 µM (active)
- EC50 [5]: 8.97 µM (active)
- CC50 (Vero): 14 µM (active)

SMILES: COc1ccc(C(=O)CSc2nc3cc(C)c(C)cc3[nH]2)cc1OC
- IC50 [6]: > 100 µM (inactive)
- IC50 [7]: > 100 µM (inactive)

SMILES: CC(=O)Nc1c(-c2ccccc2)nc2ncccn12
- IC50 [8]: > 64 µM (inactive)

SMILES: CCOc1cc(N2CCOCC2)c(OCC)cc1NC(=O)COc1cccc2cccnc12
- EC50 [9]: > 38 µM (not active)
- EC50 [10]: > 150 µM (inactive)
- AC50 [11]: 8.92 µM (active)
- IC50 [12]: 4.99 µM (active)
- AC50 [13]: 2.41 µM (active)
- AC50 (INS1): 3.83 µM (active)
- AC50 [14]: 5.04 µM (active)

SMILES: O=C(Cn1c(=O)c2cccn2c2cccnc21)NCCCN1CCN(c2ccc(Cl)cc2)CC1
- IC50 [15]: > 32 µM (inactive)
- IC50 [16]: 0.096 µM (active)
- IC50 [17]: 3.44 µM (active)
- IC50 [18]: 6.93 µM (active)
- IC50 (Mu-type opioid receptor): > 32 µM (inactive)

SMILES: Cc1cc(-c2ccc(C)c(S(=O)(=O)N3CCN(C(=O)c4ccco4)CC3)c2)on1
- EC50 [19]: 6.68 µM (active)

SMILES: COC(=O)c1cnn(-c2ccccc2)c1/C=N/NC(=S)Nc1ccc(Cl)cc1
- IC50 [20]: 0.319 µM (active)
- CC50 [21]: > 40 µM (active)
- IC50 [22]: > 32 µM (inactive)

SMILES: O=C(CSc1nc2ccccc2s1)N1c2ccccc2Sc2ccccc21
- EC50 [23]: 12.7 µM (inactive)

SMILES: CCOC(=O)c1ccc(NC2Nc3cc(C)nn3S2)cc1 (stereo unspecified)
- IC50 [24]: > 50 µM (inactive)
- IC50 (Phosphomannomutase 2): > 100 µM (inactive)

SMILES: Cc1ccc(-c2nc3ccccc3s2)cc1NC(=O)c1cc(-n2cnnc2)ccc1Cl
- IC50 [25]: 4.69 µM (active)
- AC50 (Cytochrome P450 2C19): 0.794 µM (inconclusive)
- AC50 (Cytochrome P450 3A4): 0.891 µM (inconclusive)
- IC50 [26]: 2.21 µM (active)
- IC50 [27]: 3.69 µM (active)
- AC50 (Cytochrome P450 2C9): 2.51 µM (inconclusive)
- AC50 (Cytochrome P450 1A2): 2.24 µM (inconclusive)
